Data: patent US10006020B2 (LESAFFRE ET COMPAGNIE, priority 2008, dated 2018)
“Also recorded” adds a separate entry of the source.

Experiments:
[1] = molecular target: Piromyces sp. E2 xylose isomerase, codon-optimized (plasmid p426H7-opt.XI-Piro) (Piromyces sp. E2, UniProt A0ACD6B9F5); assay: Xylitol inhibition of the xylose isomerase, comparison enzyme; assay type: biochemical
Description: (§9) 50 ml of cultures of yeast cells were grown to the exponential phase in synthetic minimal medium with 2% glucose. The cells were harvested, washed twice in Tris-HCl buffer (pH 7.5) and disrupted by means of glass beads (Ø=0.45 nm) for 8 min on a Vibrax (Janke & Kunkel, Vibrax-VBR) at 4° C. Cell debris was removed by centrifugation for 10 min at 13,000 rpm. Subsequently, the supernatant was collected and filled up to 2 ml with cold Tris-HCl buffer (pH 7.5) and used as a raw extract for the protein determination and for the measurement of the enzyme activities or the xylitol inhibition.
(§10) The XI activity was performed at 30° C. in a reaction mix (100 mM of Tris-HCl, pH 7.5; 10 mM of MgCl2, 0.23 mM of NADH; 2 U of sorbitol dehydrogenase) with different raw extract concentrations. Additionally, different concentrations of xylitol (10-100 mM) were present in the reaction mix.

[2] = molecular target: T1, Clostridium phytofermentans xylose isomerase, codon-optimized form (plasmid p426H7-opt.XI-Clos; protein SEQ ID NO: 1, ORF SEQ ID NO: 3) (Lachnoclostridium phytofermentans, UniProt A9KN98); assay: Xylitol inhibition of the xylose isomerase, codon-optimized XI gene; assay type: biochemical
Description: (§1) 50 ml of cultures of yeast cells were grown to the exponential phase in synthetic minimal medium with 2% glucose. The cells were harvested, washed twice in Tris-HCl buffer (pH 7.5) and disrupted by means of glass beads (Ø=[…]) for 8 min on a Vibrax (Janke & Kunkel, Vibrax-VBR) at 4° C. Cell debris was removed by centrifugation for 10 min at 13,000 rpm. Subsequently, the supernatant was collected and filled up to 2 ml with cold Tris-HCl buffer (pH 7.5) and used as a raw extract for the protein determination and for the measurement of the enzyme activities or the xylitol inhibition.
(§2) Recombinant yeast cells with the vector p426H7-opt.XI-Piro or the vector p426HXT7-6HIS, respectively, served as a comparison. […] The acceptance of NADH as a measured variable was determined spectrophotometrically at a wave length of 340 nm. The reaction was started by adding xylose. […]
(§3) K was determined via the equation Km′=Km′=Km*(1+i/Ki), i being the xylitol concentration used and Km′ being the apparent Km value at the corresponding xylitol concentration.
(§4) The strain CEN.PK2-1C transformed with the plasmid p426H7-opt.XI-Clos and p426H7-opt.XI-Piro, respectively, was grown over night in synthetic complete medium with 2% glucose and no uracil. Raw extracts were prepared and quantitative enzyme tests with constant xylitol concentrations of 10-100 mM were performed.

[3] = test system: Piromyces sp. E2 xylose isomerase; settings: result in words, prior art; cited from earlier work
[4] = molecular target: T2, Clostridium phytofermentans xylose isomerase (SEQ ID NO: 1) (Lachnoclostridium phytofermentans, UniProt A9KN98); assay: Xylitol inhibition of the xylose isomerase (method names p426H7-XI-Clos); assay type: biochemical
T2 construct: raw extract
Description: as §9, §10

[5] = molecular target: T1, Clostridium phytofermentans xylose isomerase, codon-optimized form (plasmid p426H7-opt.XI-Clos; protein SEQ ID NO: 1, ORF SEQ ID NO: 3); assay: Xylose isomerase activity, enzyme kinetics with xylose (raw extract, sorbitol dehydrogenase coupled, NADH 340 nm), codon-optimized XI gene; assay type: biochemical; settings: table 3; xylose 6.25-500 mM, 30° C., pH 7.5, raw extract
Description: (§5) The strain CEN.PK2-1C transformed with the plasmid p426H7-XI-Clos and p426H7-opt.XI-Clos, respectively, was grown over night in synthetic complete medium with 2% glucose and no uracil. Raw extracts were prepared and quantitative enzyme tests were performed. A representative result is shown. The values indicated in table 3 are average values from at least 3 independent measurements.
(§6) 50 ml of cultures of yeast cells were grown to the exponential phase in synthetic minimal medium with 2% glucose. The cells were harvested, washed twice in Tris-HCl buffer (pH 7.5) and disrupted by means of glass beads (Ø=[…]) for 8 min on a Vibrax (Janke & Kunkel, Vibrax-VBR) at 4° C. Cell debris was removed by centrifugation for 10 min at 13,000 rpm. […]
(§7) Recombinant yeast cells containing the empty vector p426HXT7-6HIS served as a comparison. […] The acceptance of NADH as a measured variable was determined spectrophotometrically at a wave length of 340 nm. […]
(§8) The strain CEN.PK2-1C transformed with the plasmid p426H7-XI-Clos and p426H7-opt.XI-Clos, respectively, was grown over night in synthetic complete medium with 2% glucose and no uracil. Raw extracts were prepared and quantitative enzyme tests were performed.

[6] = molecular target: Clostridium phytofermentans xylose isomerase, native form (plasmid p426H7-XI-Clos; protein SEQ ID NO: 1, ORF SEQ ID NO: 2) (Lachnoclostridium phytofermentans, UniProt A9KN98); assay: Xylose isomerase activity, enzyme kinetics with xylose (raw extract, sorbitol dehydrogenase coupled, NADH 340 nm), native XI gene; assay type: biochemical; settings: xylose 6.25-500 mM, 30° C.
Description: as §5, §6, §7, §8

[7] = substrate: OC1OC[C@@H](O)[C@H](O)[C@H]1O; assay: purified protein, by the assay type; settings: other: xylose 6.25-500 mM, 30° C., pH 7.5, raw extract of CEN.PK2-1C
[8] = test system: xylose isomerase from C. phytofermentans; assay: Measurement of the xylitol inhibition of the xylose isomerase (raw extracts); assay type: biochemical, Clostridium phytofermentans; settings: from the determined Ki values
Description: as §1, §2, §3, §4

[9] = test system: yeast strain MKY09; assay: Growth test on agar plates with SC medium and 2% xylose as only carbon source; assay type: cell-based, S. cerevisiae; settings: SC medium
Description: Growth tests of recombinant S. cerevisiae strains, which include the bacterial D-xylose metabolism with the xylose isomerase from C. phytofermentans. […] The empty vector p426HXT7-6HIS (5A) served as the negative control.
In the yeast strain CEN.PK2-1C, all the genes of the non-oxidative pentose phosphate pathway as well as the xylulokinase (XKS1) and GAL2 were overexpressed. To this end, the endogenous promoters were replaced with the truncated HXT7 promoter.
The obtained PCR products were together with the vector p426HXT7-6HIS linearized with EcoRI/BamHI transformed in yeast and cloned via in vivo recombination into the plasmid between the HXT7 promoter or CYC1 terminator, respectively (FIG. 4). The sequence of the plasmids obtained was verified by means of restriction analysis. […] However, it was not possible to amplify the desired PCR product with the xylose isomerase from the organisms Streptomyces diastaticus and Leifsonia xyli. Both xylose isomerases thus could not be tested on functionality in yeast.
To this end, the codon-optimized XI-ORF was amplified with primers and cloned into the linearized vector p426HXT7-6HIS (see “Execution of the screen”). The sequence of the obtained plasmid p426H7-opt.XI-Clos was verified by means of restriction analysis. To test the functionality of the codon-optimized isomerase, the plasmid p426H7-opt.XI-Clos was transformed in the strain MKY09. […]

Chain of Piromyces sp. E2 xylose isomerase, codon-optimized (plasmid p426H7-opt.XI-Piro) (A0ACD6B9F5 1-437): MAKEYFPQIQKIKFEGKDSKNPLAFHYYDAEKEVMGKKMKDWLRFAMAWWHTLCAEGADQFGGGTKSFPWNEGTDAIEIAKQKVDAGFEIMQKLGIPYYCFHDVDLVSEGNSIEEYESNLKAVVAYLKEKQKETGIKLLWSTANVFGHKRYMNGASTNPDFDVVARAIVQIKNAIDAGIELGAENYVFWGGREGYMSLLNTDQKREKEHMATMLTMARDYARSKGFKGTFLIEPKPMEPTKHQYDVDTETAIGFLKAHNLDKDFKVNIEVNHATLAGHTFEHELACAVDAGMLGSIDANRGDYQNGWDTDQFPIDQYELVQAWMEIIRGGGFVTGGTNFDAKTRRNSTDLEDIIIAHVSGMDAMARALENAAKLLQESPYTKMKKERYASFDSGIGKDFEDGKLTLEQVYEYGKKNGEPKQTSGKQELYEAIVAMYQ

OC[C@@H](O)[C@H](O)[C@@H](O)CO [xylitol]
Ki [1]: 4.67 ± 1.77 mM
Ki [2]: 14.5 ± 1.08 mM
inhibition by xylitol [3]: strongly inhibited
Ki [4]: 14.2 ± 1.48 mM
xylitol inhibition ([4]; result in words): competitive inhibition; also recorded: significantly less inhibited by xylitol than the xylose isomerase from Piromyces sp.E2; also recorded: only slightly inhibited

OC1OC[C@@H](O)[C@H](O)[C@H]1O (some centres unmarked) [xylose]
Vmax [5]: 0.0344 μmol/min^−1 protein^−1) mg
Vmax ([6]; table 3, pH 7.5, raw extract): 0.0076 μmol/min^−1 protein^−1) mg
Km ([6]; pH 7.5, raw extract of CEN.PK2-1C): 61.8 ± 3.4 mM

B1: Clostridium phytofermentans xylose isomerase, native form (plasmid p426H7-XI-Clos; protein SEQ ID NO: 1, ORF SEQ ID NO: 2) (Lachnoclostridium phytofermentans … (protein)
chain: MKNYFPNVPEVKYEGPNSTNPFAFKYYDANKVVAGKTMKEHCRFALSWWHTLCAGGADPFGVTTMDRTYGNITDPMELAKAKVDAGFELMTKLGIEFFCFHDADIAPEGDTFEESKKNLFEIVDYIKEKMDQTGIKLLWGTANNFSHPRFMHGASTSCNADVFAYAAAKIKNALDATIKLGGKGYVFWGGREGYETLLNTDLGLELDNMARLMKMAVEYGRANGFDGDFYIEPKPKEPTKHQYDFDTATVLAFLRKYGLEKDFKMNIEANHATLAGHTFEHELAMARVNGAFGSVDANQGDPNLGWDTDQFPTDVHSATLAMLEVLKAGGFTNGGLNFDAKVRRGSFEFDDIAYGYIAGMDTFALGLIKAAEIIDDGRIAKFVDDRYASYKTGIGKAIVDGTTSLEELEQYVLTHSEPVMQSGRQEVLETIVNNILFR
Km [7]: 61.85 ± 3.41 mM
Vmax [7]: 0.0076 μmol/min^−1 mg protein^−1

B2: Clostridium phytofermentans xylose isomerase, codon-optimized form (plasmid p426H7-opt.XI-Clos; protein SEQ ID NO: 1, ORF SEQ ID NO: 3) (Lachnoclostridium … (protein)
chain: B1 chain
Km [7]: 66.01 ± 1^ mM
Vmax [7]: 0.0344 μmol/min^−1 mg protein^−1

B3: xylose isomerase from C. phytofermentans: prokaryotic xylose isomerase of Clostridium phytofermentans, protein SEQ ID NO: 1; gene form not specified at the place (protein)
chain: B1 chain
modifications: Clostridium phytofermentans
notes: gene form not specified at the place
inhibition by xylitol compared with the xylose isomerase from Piromyces sp.E2 [8]: significantly less inhibited by xylitol
growth on plates containing xylose [9]: good growth
